The text below walks through data of ChEMBL document CHEMBL4340507, “Identification of an indol-based multi-target kinase inhibitor through phenotype screening and target fishing using inverse virtual screening approach” (Eur J Med Chem, 2019).

The source made the active and inactive calls. The calls are words filed in the database; no cut-off is given here.

The test system of one series is MCF7. Description: Antiproliferative activity against human MCF7 cells assessed as decrease in cell viability measured after 72 hrs by MTT assay. The series is classed as functional, cell-based. As to conditions: MCF7, 72 h. (Formazan colour is commonly taken as a measure of viable cells.)
For a further series, the system named is Jurkat. The series is described as follows: Antiproliferative activity against human Jurkat T cells assessed as decrease in cell viability measured after 24 to 72 hrs by MTT assay. The series is classed as functional, cell-based.
In series [1] the test system is HeLa. Description: Antiproliferative activity against human HeLa cells assessed as decrease in cell viability measured after 72 hrs by MTT assay. It is filed as functional, cell-based.
The test system of the next series is PC-3. The series is described as follows: Antiproliferative activity against human PC3 cells assessed as decrease in cell viability measured after 72 hrs by MTT assay. It is filed as functional, cell-based. As to conditions: PC-3, 72 h.
The test system of series [2] is IEC-6. The series is described as follows: Cytotoxicity against rat IEC-6 cells assessed as reduction in cell viability measured after 24 to 72 hrs by MTT assay. It is filed as cell-based. As to conditions: for Activity: rat, iec-6.
Series [3] deals with IEC-6. The series is described as follows: Cell cycle arrest in rat IEC-6 cells assessed as accumulation at G0/G1-phase at 0.1 to 0.6 uM after 24 hrs by propidium iodide staining-based FACS analysis. The series is classed as ADME. As to conditions: iec-6, 24 h. For orientation: Flow cytometry measures light scatter and fluorescence of single cells or particles in a stream.
The subject of series [4] is HeLa. The series is described as follows: Inhibition of ERK phosphorylation in human HeLa cells at 0.6 uM after 24 hrs by FACS analysis. It is filed as cell-based.
Series [5] deals with IEC-6. The series is described as follows: Induction of apoptosis in rat IEC-6 cells assessed as increase in caspase 3 level at 0.1 to 0.6 uM after 24 hrs by FACS analysis. The series is classed as cell-based. As to conditions: iec-6, 24 h.
In series [6] the test system is IEC-6. Description: Cell cycle arrest in rat IEC-6 cells assessed as decrease in accumulation at G2-phase at 0.1 to 0.6 uM after 24 hrs by propidium iodide staining-based FACS analysis. It is filed as ADME. As to conditions: iec-6, 24 h.
Series [7] relates to HeLa. Description: Cell cycle arrest in human HeLa cells assessed as decrease in accumulation at G2-phase at 0.1 to 0.6 uM after 24 hrs by propidium iodide staining-based FACS analysis. The series is classed as functional.
Series [8] relates to IEC-6. Description: Cytotoxicity against rat IEC-6 cells assessed as reduction in cell viability at 0.1 to 0.6 uM measured after 24 to 72 hrs by MTT assay. The series is classed as cell-based. As to conditions: iec-6, 0.6 µM.
The test system of series [9] is IEC-6. The series is described as follows: Induction of apoptosis in rat IEC-6 cells assessed as increase in hypodiploid nuclei at 0.1 to 0.6 uM measured after 24 hrs by propidium iodide staining-based FACS analysis. The series is classed as cell-based. As to conditions: iec-6, 24 h.
Series [10] can be described thus: Inhibition of ERK phosphorylation in rat IEC-6 cells at 0.6 uM after 24 hrs by FACS analysis. As to conditions: iec-6, 24 h. It is filed as cell-based.
Series [11] deals with IEC-6. Description: Cell cycle arrest in rat IEC-6 cells assessed as increase in accumulation at S phase at 0.1 to 0.6 uM after 24 hrs by propidium iodide staining based FACS analysis. The series is classed as ADME. As to conditions: iec-6, 24 h.
The test system of series [12] is IEC-6. The series is described as follows: Down regulation of ERK expression in rat IEC-6 cells at 0.6 uM after 24 hrs by FACS analysis. As to conditions: iec-6, 24 h. The series is classed as ADME, cell-based.
In series [13] the test system is HeLa. The series is described as follows: Down regulation of ERK expression in human HeLa cells at 0.1 to 0.6 uM after 24 hrs by FACS analysis. The series is classed as functional, cell-based.
The subject of series [14] is HeLa. The series is described as follows: Induction of apoptosis in human HeLa cells assessed as increase in hypodiploid nuclei at 0.3 to 0.6 uM measured after 24 hrs by propidium iodide staining-based FACS analysis. It is filed as functional, cell-based.
Series [15] concerns IEC-6. The series is described as follows: Induction of ROS generation in rat IEC-6 cells at 0.1 to 0.6 uM measured after 24 hrs by H2DCF-DA staining-based FACS analysis. It is filed as cell-based. As to conditions: iec-6, 24 h.
The subject of series [16] is HeLa. The series is described as follows: Induction of apoptosis in human HeLa cells assessed as effect on PARP level at 0.1 to 0.6 uM after 24 hrs by FACS analysis. The series is classed as functional, cell-based.
The subject of series [17] is HeLa. The series is described as follows: Induction of apoptosis in human HeLa cells assessed as increase in caspase 3 level at 0.1 to 0.6 uM after 24 hrs by FACS analysis. It is filed as functional, cell-based.
In series [18] the test system is HeLa. The series is described as follows: Cell cycle arrest in human HeLa cells assessed as accumulation at G0/G1-phase at 0.1 to 0.6 uM after 24 hrs by propidium iodide staining-based FACS analysis. The series is classed as functional.
Series [19] has as its system IEC-6. Description: Induction of apoptosis in rat IEC-6 cells assessed as effect on PARP level at 0.1 to 0.6 uM after 24 hrs by FACS analysis. The series is classed as cell-based. As to conditions: iec-6, 24 h.
Series [20] relates to HeLa. Description: Induction of ROS generation in human HeLa cells at 0.1 to 0.6 uM measured after 24 hrs by H2DC-DA probe-based FACS analysis. The series is classed as functional, cell-based.

Turning to `CN(Cc1cccc2ccccc12)Cc1cn(C)c2ccc(CNc3ccc(F)cc3)cc12`, the IC50 (in general, the concentration that gives 50% inhibition) in the series with MCF7 came out at 4.55 µM; in the series with Jurkat, 3.68 µM; with HeLa [1], 0.95 µM; with PC-3, 9.41 µM; in the series with IEC-6 [2] (Rattus norvegicus, IEC-6), 0.59 µM.
For the molecule `CC(=O)N(CCc1ccc(-c2ccccc2)cc1)Cc1cn(C)c2ccc(C(=O)Nc3ccc(F)cc3)cc12`, the IC50 with MCF7 is 82.6 µM; in the series with Jurkat, greater than 100 µM; in the series with HeLa [1], greater than 100 µM; with PC-3, greater than 100 µM.
Consider `CC(=O)N(CCc1ccc(-c2ccccc2)cc1)Cc1cn(C)c2ccc(C(=O)Nc3ccc(C)cc3)cc12`, for which the IC50 is 12.8 µM with MCF7, greater than 100 µM in the series on Jurkat, greater than 100 µM with HeLa [1] and greater than 100 µM with PC-3.
For `COc1cc(CN(C)Cc2cn(C)c3ccc(C(=O)Nc4ccc(F)cc4)cc23)cc(OC)c1OC`, the IC50 stood at 13.2 µM with MCF7, 42.1 µM in the series with Jurkat, 4.21 µM in the series on HeLa [1] and 6.45 µM with PC-3.
On the same counts, the results for `Cn1cc(CNCCc2ccc(-c3ccccc3)cc2)c2cc(CNc3ccc(F)cc3)ccc21` are 76.4 µM, 72 µM, 14.7 µM and 2.08 µM.
With `CN(CCc1ccc(-c2ccccc2)cc1)Cc1cn(C)c2ccc(CNc3ccc(F)cc3)cc12`, the IC50 in the series on MCF7 amounted to 2.15 µM; with Jurkat, 26.5 µM; in the series on HeLa [1], 2.92 µM; in the series on PC-3, 72.7 µM.
In the case of `CN(CCc1ccc(-c2ccccc2)cc1)Cc1cn(C)c2ccc(C(=O)N3CCCCC3)cc12`, the half-maximal inhibitory concentration (IC50) was 3.04 µM in the series with MCF7, 60.4 µM with Jurkat, 73.2 µM with HeLa [1] and 52.2 µM in the series on PC-3. The Activity result in the series with IEC-6 [2] was “Non-Toxic”.
As to `CN(Cc1ccc(-c2ccccc2)cc1)Cc1cn(C)c2ccc(C(=O)Nc3ccc(F)cc3)cc12`, the IC50 with MCF7 is 54.4 µM; in the series with Jurkat, greater than 100 µM; in the series with HeLa [1] it was 23.6 µM; with PC-3, greater than 100 µM.
On to `CCNC(=O)c1ccc2c(c1)c(CN(C)CCc1ccc(-c3ccccc3)cc1)cn2C`, for which the IC50 in the series with MCF7 was 12.2 µM; in the series on Jurkat it was 79.2 µM; in the series with HeLa [1], greater than 100 µM; with PC-3, 87.5 µM.
On the same counts, the results for `CN1CCN(Cc2cn(C)c3ccc(C(=O)Nc4ccc(F)cc4)cc23)CC1` are 24.7 µM, greater than 100 µM, 24.8 µM and 89.2 µM.
In the case of `O=C(Nc1ccc(F)cc1)c1ccc2c(ccn2Cc2ccc(-c3ccccc3)cc2)c1`, the IC50 with MCF7 was 10.8 µM; in the series with Jurkat it was greater than 100 µM; in the series with HeLa [1], 67.6 µM; with PC-3, 8.36 µM.
For the molecule `Cc1ccc(NC(=O)c2ccc3c(c2)c(CN(C)CCc2ccc(-c4ccccc4)cc2)cn3C)cc1`, the half-maximal inhibitory concentration (IC50) in the series with MCF7 came to 3.04 µM; in the series on Jurkat, 68 µM; in the series with HeLa [1], 69.8 µM; in the series on PC-3, 50.3 µM. In the series with IEC-6 [2], the Activity entry was “Non-Toxic”.
On to `Cn1cc(CN2CCN(Cc3ccc(-c4ccccc4)cc3)CC2)c2cc(C(=O)Nc3ccc(F)cc3)ccc21`, for which the IC50 in the series on MCF7 was 63.9 µM; in the series with Jurkat it was greater than 100 µM; in the series with HeLa [1], 39.7 µM; in the series on PC-3, 37.5 µM.
Take `N#Cc1c(Oc2ccc(F)c(NC(=O)Cc3cccc(C(F)(F)F)c3)c2)ccc2nc(NC(=O)C3CC3)sc12`: the Activity result in the series on IEC-6 [3], in the series on IEC-6 [5], in the series with IEC-6 [6], in the series with IEC-6 [8], in the series with IEC-6 [9] and in the series with IEC-6 [11] was “Toxic” in each case. The Activity entry with IEC-6 [12] is given as “Toxic”; in the series on IEC-6 [15], “Toxic”; in the series with IEC-6 [19] it was “Non-Toxic”. Further, in the series on HeLa [4], the inhibition result was “Active”. Further, the result with HeLa [7], in the series with HeLa [13], with HeLa [14], in the series with HeLa [17], in the series with HeLa [18] and in the series on HeLa [20] was Active. Moreover, the “inhibition (INH)” value in series [10] is “Active”. In the series with HeLa [16], the outcome was inactive.
For the molecule `COc1cccc2c1C(=O)c1c(O)c3c(c(O)c1C2=O)C[C@@](O)(C(=O)CO)C[C@@H]3O[C@H]1C[C@H](N)[C@H](O)[C@H](C)O1` [DOXORUBICIN], the IC50 stood at 14 µM in the series on MCF7, 2.35 µM in the series on Jurkat, 1.44 µM in the series with HeLa [1] and 1.07 µM in the series on PC-3.
In the case of `Cn1cc(CNCCc2ccc(-c3ccccc3)cc2)c2cc(C(=O)Nc3ccc(F)cc3)ccc21`, the IC50 in the series with MCF7 is 7.07 µM; in the series on Jurkat, 83.8 µM; in the series on HeLa [1] it was 24.3 µM; in the series with PC-3, 45.3 µM.
On the same counts, the results for `CN(CCc1ccccc1)Cc1cn(C)c2ccc(C(=O)Nc3ccc(F)cc3)cc12` are 14.7 µM, greater than 100 µM, 19.6 µM and 47.7 µM.
With `CCCn1cc(CNCCc2ccc(-c3ccccc3)cc2)c2cc(CNc3ccc(F)cc3)ccc21`, the IC50 in the series on MCF7 came out at 1.26 µM; in the series with Jurkat it was 6.21 µM; with HeLa [1], 7.23 µM; in the series with PC-3 it was 5.41 µM. Further, the Activity entry in the series on IEC-6 [2] is reported as “Toxic”.
Turning to `CN(CCc1ccc(Oc2ccccc2)cc1)Cc1cn(C)c2ccc(C(=O)Nc3ccc(F)cc3)cc12`, the concentration for half-maximal inhibition (IC50) came out at 20.7 µM in the series with MCF7, 51.8 µM with Jurkat, 16.6 µM with HeLa [1] and 30.8 µM in the series on PC-3.
On the same counts, the results for `CN(Cc1ccc(Oc2ccccc2)cc1)Cc1cn(C)c2ccc(CNc3ccc(F)cc3)cc12` are 37 µM, 35.6 µM, 9.98 µM and 56 µM.
As to `CN(Cc1ccc(-c2ccccc2)cc1)Cc1cn(C)c2ccc(CNc3ccc(F)cc3)cc12`, the IC50 came to 20.2 µM with MCF7, 34.4 µM in the series on Jurkat, 8.18 µM in the series with HeLa [1] and 84.3 µM in the series with PC-3.
